In US6194173A, “Binding proteins for phosphoinositides, GRP1 or general receptor 1 for phophoinositide” (priority 1999, dated 2001):

T1: GSTPH(GRP) (Mus musculus, UniProt O08967)
T1 construct: residues 239 to 399 (PH domain); made in house; host or cells: bacteria
T1 sequence (O08967 239-399): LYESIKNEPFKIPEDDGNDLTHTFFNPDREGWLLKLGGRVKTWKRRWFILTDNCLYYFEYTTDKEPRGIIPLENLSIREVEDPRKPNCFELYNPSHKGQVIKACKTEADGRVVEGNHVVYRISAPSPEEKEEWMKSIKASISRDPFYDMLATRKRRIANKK

T2: GRP (Mus musculus, UniProt O08967)
T2 construct: GST (N, cleaved yes); made in house; host or cells: GRP from pGEX-4T; ARF1 from baculovirus-infected Sf-9 cells
T2 sequence (O08967 1-399): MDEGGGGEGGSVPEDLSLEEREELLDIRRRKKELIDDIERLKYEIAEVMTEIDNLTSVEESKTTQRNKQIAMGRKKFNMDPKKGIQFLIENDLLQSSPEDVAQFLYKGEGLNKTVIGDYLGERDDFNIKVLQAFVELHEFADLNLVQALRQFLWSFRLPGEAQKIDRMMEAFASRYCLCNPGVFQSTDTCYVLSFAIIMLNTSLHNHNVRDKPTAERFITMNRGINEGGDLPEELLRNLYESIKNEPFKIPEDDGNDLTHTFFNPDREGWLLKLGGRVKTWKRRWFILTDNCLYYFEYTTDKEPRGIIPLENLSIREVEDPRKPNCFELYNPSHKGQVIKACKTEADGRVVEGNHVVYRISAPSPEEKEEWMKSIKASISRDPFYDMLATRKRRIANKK


Key:
[1] = target: T1, GSTPH(GRP); assay: Competition of [32P]PI(3,4,5)P3 binding to GST-PH by inositol phosphate head groups; set-up: species or system murine; settings: for inhibition of [^32 P]PI(3,4,5)P3 binding to GST-PH(GRP): 100 μM competitor; for binding of inositol phosphate to GRP polypeptides: statement in the description
From the text: (§1) To generate the GST fusion proteins, PCR reactions using the primers: […] (SEQ ID NO:9) and […] (SEQ ID NO:10) for the GST-N construct, […] (SEQ ID NO:11) and […] (SEQ ID NO:12) for the GST-Sec7 construct, […] (SEQ ID NO:13) and […] (SEQ ID NO:14) for the GSTPH construct, and […] (SEQ ID NO:15) and […] (SEQ ID NO:16) for the GSTGRP constructs. The sequences of the PCR products were verified, and cloned into pGEX-5X-3 in the EcoRI and Xba 1 sites. The bacteria were lysed and the fusion proteins were bound to gluthathione agarose according to standard procedures. Elution was effected by incubation of the beads with one volume 20 mM Hepes, 100 mM NaCl, 1 mM dithiotreitol (H buffer) supplemented with 10 mM gluthatione and 1% sodium cholate, and the eluate was dialyzed extensively against H buffer. For binding assays, protein was bound to nitrocellulose using a BIO-RAD BIO-DOT™ apparatus, using 150 pmol per well for binding assays and 7.5 pmol for competition assays. The nitrocellulose was washed in assay buffer, and 3 mm circles of the filters containing the protein were cut out and incubated in […] assay buffer with the relevant lipids and competitors for 2 h under constant agitation. The filters were washed four times with 1 mL assay buffer and counted in a scintillation counter.
The specificity of the GRP PH domain for binding [^32 P]PI(3,4,5,)P3 was also examined with respect to competition by the inositol phosphate head groups of the phosphoinositides. […] More specifically, 25,000 cpm of [^32 P]PI(3,4,5)P3 was incubated with varying concentrations of inositol 1 ,3,4,5P4 and bound radioactivity determined. The amount of radioactivity bound was calculated as percent of that bound in the absence of competitor. The values are means of quadruplicate measurements, and the error bars are standard deviations. The lack of inhibition by the latter two phosphoinositides is particularly striking since they carry the same charge as the inhibitor […] The concentration of inositol 1,3,4,5-P4 that inhibited binding of [^32 p]PI(3,4,5,)P3 half maximally was about 3-6 μM (FIG. 5A). Taken together, the data in FIGS. 4 and 5 indicate extraordinary specificity of the GRP PH domain for PI(3,4,5)P3. […] The binding to GST fusion proteins containing amino acids 462-569 of murine Sos or amino acid 13-115 of murine IRS-1 was assayed using 150 pmoles of protein bound to the filters. Competition of binding to 7.5 pmoles of GST-PH was measured in the presence of 100 μM of the competitors. The values were calculated as in (A), and are means of quadruplicate measurements and the error bars represent standard deviations.

[2] = target: T2, GRP; assay: Inhibition by inositol phosphates of PtdIns(3,4,5)P3-stimulated GRP-mediated ARF1 exchange; type: biochemical; settings: 100 μM inositol phosphate, 0.05% cholate and 0.05% CHAPS
[3] = Binding of [32P]PI(3,4,5)P3 by GST fusion proteins spotted on nitrocellulose; settings: 150 pmol protein on nitrocellulose; relative to GST
Procedure: The 3'-phosphatidylinositol probes labeled at the 3' position were generated using GST-p110 PI3-kinase purified from recombinant bacculovirus infected Sf 9 cells, using either purified phosphatidylinositol phosphates or crude brain lipid. Briefly, 20 mg phospholipid in chloroform was dried under N2 and resuspended in […] of buffer containing Tris-HCl pH 7.4, EDTA 1 mM and incubated in […] phopsphorylation media containing 20 mM Tris-HCl pH 7.4, 100 mM NaCl, 10 mM MgCl2, 0.5 mM EGTA. 0.2 mM adenosine, GST-p110 and 5-10 mCi [g-^32 P]ATP (5 Ci/umol). The reaction was carried out for 2 h at room temperature, quenched by addition of 0.2 ml of 1M HCl, followed by 0.5 ml of chloroform:methanol (1:1). The organic phase containing phospholipids was washed 4 times with 0.4 ml of methanol:HCl (1: 1) and stored at -70° C. until use. Just before use, the lipid was dried under a stream of nitrogen with phosphatidyl serine corresponding to a final concentration of 20 mg/ml. The identities of the PI3-P, PI3,4-P2 and PI3,4,5-P3 were confirmed by TLC and HPLC analysis.
as §1
In order to determine whether PI(3,4,5)P3 binding could be localized to specific sequences within the GRP structure, GST fusion proteins containing either residues 239 to 399 (PH domain), residues 52 to 260 (Sec7 domain), or residues 5 to 71, full length GRP residues 5-399 were expressed in bacteria and purified on glutathione-conjugated beads. […] 150 pmol of the proteins were spotted on nitrocellulose filters, incubated with [^32 P]PI(3,4,5)P3 and the amount of bound lipid was determined as described. The values are the means of the quadruplicate determinations, and the error bars are the standard deviations. […] Nitrocellulose filters with GST-PH were incubated with 25,000 cpm of each of the phospholipids and the amount of bound lipid determined as described above. The values are the means of quadruplicate determinations and the error bars are the standard deviations. […] Although previous work has shown that PH domain from PLCδ (Lemmon et al. (1995) supra) and various other proteins bind 4,5-polyphosphoinositide, none have been reported to preferentially associate with a 3-polyphosphoinositide. […]

[4] = system: ARF1; assay: ARF1 guanine nucleotide exchange ([35S]GTPγS binding); type: biochemical; settings: [^35 S]GTPγS binding to immunoprecipitated ARF1

Molecule	inhibition of [^32 P]PI(3,4,5)P3 binding to GST-PH(GRP) [1]	binding of inositol phosphate to GRP polypeptides [1]	inhibition of PtdIns(3,4,5)P3-stimulated GRP-mediated ARF1 guanine nucleotide exchange [2]	binding of [^32 P]PI(3,4,5)P3 by GST fusion protein [3]	ARF1 guanine nucleotide exchange [4]	further results
O=P(O)(O)O[C@H]1[C@H](OP(=O)(O)O)[C@@H](OP(=O)(O)O)[C@H](O)[C@@H](O)[C@H]1OP(=O)(O)O (relative stereo) [Ins(1,2,5,6)P4, inositol 1,2,5,6-P4]	little or no effect	not	failed to inhibit	–	–	–
IRS-1PH domain: GST fusion protein containing amino acid 13-115 of murine IRS-1 (protein, UniProt P35569 13-115, looked up, fragment, PH domain GST fusion) VRKVGYLRKPKSMHKRFFVLRAASEAGGPARLEYYENEKKWRHKSSAPKRSIPLESCFNINKRADSKNKHLVALYTRDEHFAIAADSEAEQDSWYQALLQLHN	–	–	–	negligible	–	–
GRP PH domain: GST fusion protein containing residues 239 to 399 (PH domain) (protein, GST fusion partner) LYESIKNEPFKIPEDDGNDLTHTFFNPDREGWLLKLGGRVKTWKRRWFILTDNCLYYFEYTTDKEPRGIIPLENLSIREVEDPRKPNCFELYNPSHKGQVIKACKTEADGRVVEGNHVVYRISAPSPEEKEEWMKSIKASISRDPFYDMLATRKRRIANKK	–	–	–	extensive binding	no effect	–
GRP Sec7 domain: GST fusion protein containing residues 52 to 260 (Sec7 domain) (protein, UniProt O08967 52-260, looked up, fragment, Sec7 domain GST fusion) IDNLTSVEESKTTQRNKQIAMGRKKFNMDPKKGIQFLIENDLLQSSPEDVAQFLYKGEGLNKTVIGDYLGERDDFNIKVLQAFVELHEFADLNLVQALRQFLWSFRLPGEAQKIDRMMEAFASRYCLCNPGVFQSTDTCYVLSFAIIMLNTSLHNHNVRDKPTAERFITMNRGINEGGDLPEELLRNLYESIKNEPFKIPEDDGNDLTH	–	–	–	No significant binding	high activity	ARF1 guanine nucleotide exchange ([4]; listed as SEC7 homology domain): as effective as the fill length GRP; ARF1 guanine nucleotide exchange ([4]; listed as Sec 7 domains of GRP): sufficient for catalysis

Continued, in another order:

inhibition of [^32 P]PI(3,4,5)P3 binding to GST-PH(GRP) [1]	binding of inositol phosphate to GRP polypeptides [1]	inhibition of PtdIns(3,4,5)P3-stimulated GRP-mediated ARF1 guanine nucleotide exchange [2]	binding of [^32 P]PI(3,4,5)P3 by GST fusion protein [3]	ARF1 guanine nucleotide exchange [4]	Molecule	further results
markedly inhibited	bind	virtually ablated	–	–	O=P(O)(O)O[C@H]1[C@H](O)[C@@H](OP(=O)(O)O)[C@H](OP(=O)(O)O)[C@@H](OP(=O)(O)O)[C@H]1O [Ins(1,3,4,5)P4, inositol 1,3,4,5-P4]	IC50 ([1]; 25,000 cpm [^32 P]PI(3,4,5)P3, GST-PH, read-out: concentration that inhibited binding of [^32 p]PI(3,4,5)P3 half maximally): 3 to 6 µM; inhibition of PtdIns(3,4,5)P3-stimulated GRP-mediated ARF1 guanine nucleotide exchange ([2]; listed as Ins(1,3,4,5) tetrakisphosphate): selectively blocked
–	–	failed to inhibit	–	–	O=P(O)(O)O[C@H]1[C@H](O)[C@@H](O)[C@H](OP(=O)(O)O)[C@@H](OP(=O)(O)O)[C@H]1O [Ins(1,3,4)P3]	–
little or no effect	not	failed to inhibit	–	–	O=P(O)(O)O[C@@H]1[C@@H](O)[C@H](OP(=O)(O)O)[C@@H](OP(=O)(O)O)[C@@H](O)[C@H]1OP(=O)(O)O [Ins(1,3,4,6)P4, inositol 1,3,4,6-P4]	–
–	–	–	No significant binding	no effect	N-terminus of GRP: GST fusion protein containing residues 5 to 71 (protein, UniProt O08967 5-71, looked up, fragment, GST fusion) GGGEGGSVPEDLSLEEREELLDIRRRKKELIDDIERLKYEIAEVMTEIDNLTSVEESKTTQRNKQIA	–
